{"source": "the NIST ThermoML archive (doi:10.1016/j.fluid.2008.09.004)", "key": {"[1]": {"assay": "xn = mol fraction of the nth substance listed", "conditions": "318.15 K, 101 kPa, Liquid, Vibrating tube method"}, "[2]": {"assay": "molar heat capacity at constant pressure; xn = mol fraction of the nth substance listed", "conditions": "101 kPa, Liquid, Small sample (50 mg) DSC"}}, "note": "± gives the expanded uncertainty stated by the source."}
{"compound": "CCCCn1cc[n+](C)c1.O=S(=O)([O-])C(F)(F)F", "note": "[1-butyl-3-methylimidazolium trifluoromethanesulfonate] + CCO", "values": [{"measurement": "mass density", "setting": "[1]; x1 = 0.5923", "result": "1205 ± 0.2", "unit": "kg/m3"}, {"measurement": "mass density", "setting": "[1]; x1 = 0.6898", "result": "1229 ± 0.2", "unit": "kg/m3"}, {"measurement": "mass density", "setting": "[1]; x1 = 0.7868", "result": "1248.5 ± 0.2", "unit": "kg/m3"}, {"measurement": "mass density", "setting": "[1]; x1 = 0.8756", "result": "1263.8 ± 0.2", "unit": "kg/m3"}, {"measurement": "mass density", "setting": "[1]; x1 = 0.9283", "result": "1271.8 ± 0.2", "unit": "kg/m3"}, {"measurement": "molar heat capacity at constant pressure", "setting": "[2]; 293.15 K, x1 = 0.0522", "result": "128.2 ± 2", "unit": "J/K/mol"}, {"measurement": "molar heat capacity at constant pressure", "setting": "[2]; 293.15 K, x1 = 0.0982", "result": "143.3 ± 2.2", "unit": "J/K/mol"}, {"measurement": "molar heat capacity at constant pressure", "setting": "[2]; 293.15 K, x1 = 0.1976", "result": "175.3 ± 2.7", "unit": "J/K/mol"}, {"measurement": "molar heat capacity at constant pressure", "setting": "[2]; 293.15 K, x1 = 0.2999", "result": "207.9 ± 3.2", "unit": "J/K/mol"}, {"measurement": "molar heat capacity at constant pressure", "setting": "[2]; 293.15 K, x1 = 0.3996", "result": "237.9 ± 3.7", "unit": "J/K/mol"}, {"measurement": "molar heat capacity at constant pressure", "setting": "[2]; 293.15 K, x1 = 0.4973", "result": "267.2 ± 4.1", "unit": "J/K/mol"}, {"measurement": "molar heat capacity at constant pressure", "setting": "[2]; 293.15 K, x1 = 0.5923", "result": "295.7 ± 4.6", "unit": "J/K/mol"}, {"measurement": "molar heat capacity at constant pressure", "setting": "[2]; 293.15 K, x1 = 0.6898", "result": "326.5 ± 5.1", "unit": "J/K/mol"}, {"measurement": "molar heat capacity at constant pressure", "setting": "[2]; 293.15 K, x1 = 0.7868", "result": "355.5 ± 5.5", "unit": "J/K/mol"}, {"measurement": "molar heat capacity at constant pressure", "setting": "[2]; 293.15 K, x1 = 0.8756", "result": "382.4 ± 5.9", "unit": "J/K/mol"}, {"measurement": "molar heat capacity at constant pressure", "setting": "[2]; 293.15 K, x1 = 0.9283", "result": "399 ± 6.2", "unit": "J/K/mol"}, {"measurement": "molar heat capacity at constant pressure", "setting": "[2]; 298.15 K, x1 = 0.0522", "result": "130 ± 2", "unit": "J/K/mol"}, {"measurement": "molar heat capacity at constant pressure", "setting": "[2]; 298.15 K, x1 = 0.0982", "result": "144.9 ± 2.2", "unit": "J/K/mol"}, {"measurement": "molar heat capacity at constant pressure", "setting": "[2]; 298.15 K, x1 = 0.1976", "result": "176.8 ± 2.7", "unit": "J/K/mol"}, {"measurement": "molar heat capacity at constant pressure", "setting": "[2]; 298.15 K, x1 = 0.2999", "result": "209.2 ± 3.2", "unit": "J/K/mol"}, {"measurement": "molar heat capacity at constant pressure", "setting": "[2]; 298.15 K, x1 = 0.3996", "result": "239.4 ± 3.7", "unit": "J/K/mol"}, {"measurement": "molar heat capacity at constant pressure", "setting": "[2]; 298.15 K, x1 = 0.4973", "result": "268.9 ± 4.2", "unit": "J/K/mol"}, {"measurement": "molar heat capacity at constant pressure", "setting": "[2]; 298.15 K, x1 = 0.5923", "result": "297.3 ± 4.6", "unit": "J/K/mol"}, {"measurement": "molar heat capacity at constant pressure", "setting": "[2]; 298.15 K, x1 = 0.6898", "result": "328.2 ± 5.1", "unit": "J/K/mol"}, {"measurement": "molar heat capacity at constant pressure", "setting": "[2]; 298.15 K, x1 = 0.7868", "result": "357.6 ± 5.5", "unit": "J/K/mol"}, {"measurement": "molar heat capacity at constant pressure", "setting": "[2]; 298.15 K, x1 = 0.8756", "result": "384.5 ± 6", "unit": "J/K/mol"}, {"measurement": "molar heat capacity at constant pressure", "setting": "[2]; 298.15 K, x1 = 0.9283", "result": "401.2 ± 6.2", "unit": "J/K/mol"}, {"measurement": "molar heat capacity at constant pressure", "setting": "[2]; 303.15 K, x1 = 0.0522", "result": "131.8 ± 2", "unit": "J/K/mol"}, {"measurement": "molar heat capacity at constant pressure", "setting": "[2]; 303.15 K, x1 = 0.0982", "result": "146.4 ± 2.3", "unit": "J/K/mol"}, {"measurement": "molar heat capacity at constant pressure", "setting": "[2]; 303.15 K, x1 = 0.1976", "result": "178.3 ± 2.8", "unit": "J/K/mol"}, {"measurement": "molar heat capacity at constant pressure", "setting": "[2]; 303.15 K, x1 = 0.2999", "result": "210.6 ± 3.3", "unit": "J/K/mol"}, {"measurement": "molar heat capacity at constant pressure", "setting": "[2]; 303.15 K, x1 = 0.3996", "result": "240.9 ± 3.7", "unit": "J/K/mol"}, {"measurement": "molar heat capacity at constant pressure", "setting": "[2]; 303.15 K, x1 = 0.4973", "result": "270.7 ± 4.2", "unit": "J/K/mol"}, {"measurement": "molar heat capacity at constant pressure", "setting": "[2]; 303.15 K, x1 = 0.5923", "result": "299 ± 4.6", "unit": "J/K/mol"}, {"measurement": "molar heat capacity at constant pressure", "setting": "[2]; 303.15 K, x1 = 0.6898", "result": "330 ± 5.1", "unit": "J/K/mol"}, {"measurement": "molar heat capacity at constant pressure", "setting": "[2]; 303.15 K, x1 = 0.7868", "result": "359.9 ± 5.6", "unit": "J/K/mol"}, {"measurement": "molar heat capacity at constant pressure", "setting": "[2]; 303.15 K, x1 = 0.8756", "result": "386.8 ± 6", "unit": "J/K/mol"}, {"measurement": "molar heat capacity at constant pressure", "setting": "[2]; 303.15 K, x1 = 0.9283", "result": "403.7 ± 6.3", "unit": "J/K/mol"}, {"measurement": "molar heat capacity at constant pressure", "setting": "[2]; 308.15 K, x1 = 0.0522", "result": "133.8 ± 2.1", "unit": "J/K/mol"}, {"measurement": "molar heat capacity at constant pressure", "setting": "[2]; 308.15 K, x1 = 0.0982", "result": "148.2 ± 2.3", "unit": "J/K/mol"}, {"measurement": "molar heat capacity at constant pressure", "setting": "[2]; 308.15 K, x1 = 0.1976", "result": "180 ± 2.8", "unit": "J/K/mol"}, {"measurement": "molar heat capacity at constant pressure", "setting": "[2]; 308.15 K, x1 = 0.2999", "result": "212.1 ± 3.3", "unit": "J/K/mol"}, {"measurement": "molar heat capacity at constant pressure", "setting": "[2]; 308.15 K, x1 = 0.3996", "result": "242.6 ± 3.8", "unit": "J/K/mol"}, {"measurement": "molar heat capacity at constant pressure", "setting": "[2]; 308.15 K, x1 = 0.4973", "result": "272.6 ± 4.2", "unit": "J/K/mol"}, {"measurement": "molar heat capacity at constant pressure", "setting": "[2]; 308.15 K, x1 = 0.5923", "result": "301 ± 4.7", "unit": "J/K/mol"}, {"measurement": "molar heat capacity at constant pressure", "setting": "[2]; 308.15 K, x1 = 0.6898", "result": "332 ± 5.1", "unit": "J/K/mol"}, {"measurement": "molar heat capacity at constant pressure", "setting": "[2]; 308.15 K, x1 = 0.7868", "result": "362.3 ± 5.6", "unit": "J/K/mol"}, {"measurement": "molar heat capacity at constant pressure", "setting": "[2]; 308.15 K, x1 = 0.8756", "result": "389.3 ± 6", "unit": "J/K/mol"}, {"measurement": "molar heat capacity at constant pressure", "setting": "[2]; 308.15 K, x1 = 0.9283", "result": "406.3 ± 6.3", "unit": "J/K/mol"}, {"measurement": "molar heat capacity at constant pressure", "setting": "[2]; 313.15 K, x1 = 0.0522", "result": "135.8 ± 2.1", "unit": "J/K/mol"}, {"measurement": "molar heat capacity at constant pressure", "setting": "[2]; 313.15 K, x1 = 0.0982", "result": "150 ± 2.3", "unit": "J/K/mol"}, {"measurement": "molar heat capacity at constant pressure", "setting": "[2]; 313.15 K, x1 = 0.1976", "result": "181.7 ± 2.8", "unit": "J/K/mol"}, {"measurement": "molar heat capacity at constant pressure", "setting": "[2]; 313.15 K, x1 = 0.2999", "result": "213.7 ± 3.3", "unit": "J/K/mol"}, {"measurement": "molar heat capacity at constant pressure", "setting": "[2]; 313.15 K, x1 = 0.3996", "result": "244.3 ± 3.8", "unit": "J/K/mol"}, {"measurement": "molar heat capacity at constant pressure", "setting": "[2]; 313.15 K, x1 = 0.4973", "result": "274.6 ± 4.3", "unit": "J/K/mol"}, {"measurement": "molar heat capacity at constant pressure", "setting": "[2]; 313.15 K, x1 = 0.5923", "result": "303 ± 4.7", "unit": "J/K/mol"}, {"measurement": "molar heat capacity at constant pressure", "setting": "[2]; 313.15 K, x1 = 0.6898", "result": "334.1 ± 5.2", "unit": "J/K/mol"}, {"measurement": "molar heat capacity at constant pressure", "setting": "[2]; 313.15 K, x1 = 0.7868", "result": "364.8 ± 5.7", "unit": "J/K/mol"}, {"measurement": "molar heat capacity at constant pressure", "setting": "[2]; 313.15 K, x1 = 0.8756", "result": "391.9 ± 6.1", "unit": "J/K/mol"}, {"measurement": "molar heat capacity at constant pressure", "setting": "[2]; 313.15 K, x1 = 0.9283", "result": "409 ± 6.3", "unit": "J/K/mol"}, {"measurement": "molar heat capacity at constant pressure", "setting": "[2]; 318.15 K, x1 = 0.0522", "result": "138 ± 2.1", "unit": "J/K/mol"}, {"measurement": "molar heat capacity at constant pressure", "setting": "[2]; 318.15 K, x1 = 0.0982", "result": "152 ± 2.4", "unit": "J/K/mol"}, {"measurement": "molar heat capacity at constant pressure", "setting": "[2]; 318.15 K, x1 = 0.1976", "result": "183.6 ± 2.8", "unit": "J/K/mol"}, {"measurement": "molar heat capacity at constant pressure", "setting": "[2]; 318.15 K, x1 = 0.2999", "result": "215.4 ± 3.3", "unit": "J/K/mol"}, {"measurement": "molar heat capacity at constant pressure", "setting": "[2]; 318.15 K, x1 = 0.3996", "result": "246.2 ± 3.8", "unit": "J/K/mol"}, {"measurement": "molar heat capacity at constant pressure", "setting": "[2]; 318.15 K, x1 = 0.4973", "result": "276.8 ± 4.3", "unit": "J/K/mol"}, {"measurement": "molar heat capacity at constant pressure", "setting": "[2]; 318.15 K, x1 = 0.5923", "result": "305.1 ± 4.7", "unit": "J/K/mol"}, {"measurement": "molar heat capacity at constant pressure", "setting": "[2]; 318.15 K, x1 = 0.6898", "result": "336.4 ± 5.2", "unit": "J/K/mol"}, {"measurement": "molar heat capacity at constant pressure", "setting": "[2]; 318.15 K, x1 = 0.7868", "result": "367.5 ± 5.7", "unit": "J/K/mol"}, {"measurement": "molar heat capacity at constant pressure", "setting": "[2]; 318.15 K, x1 = 0.8756", "result": "394.6 ± 6.1", "unit": "J/K/mol"}, {"measurement": "molar heat capacity at constant pressure", "setting": "[2]; 318.15 K, x1 = 0.9283", "result": "411.9 ± 6.4", "unit": "J/K/mol"}]}
